According to patent US20210386762A1, “THE APPLICATION OF URSODEOXYCHOLIC ACID OR ITS PHARMACEUTICAL SALT IN THE PREPARATION OF AN ANTITUMOR DRUG AND AN ANTITUMOR DRUG” (ZHEJIANG UNIVERSITY, priority 2018, published 2021):

B1: SHR-1210: humanized anti-PD-1 antibody produced by Hengrui Medicine (antibody, chains of the INN, looked up, V domains shown)
VH: EVQLVESGGGLVQPGGSLRLSCAASGFTFSSYMMSWVRQAPGKGLEWVATISGGGANTYYPDSVKGRFTISRDNAKNSLYLQMNSLRAEDTAVYYCARQLYYFDYWGQGTTVTVSS
VL: DIQMTQSPSSLSASVGDRVTITCLASQTIGTWLTWYQQKPGKAPKLLIYTATSLADGVPSRFSGSGSGTDFTLTISSLQPEDFATYYCQQVYSIPWTFGGGTKVEIK

How the values were obtained:
[1] = system: colon cancer cell line MC38; assay: Colon cancer tumor-bearing mouse model (C57BL/6); format: in vivo
Source text: (§1) Female C57BL/6 (6-8 weeks old) mice were purchased from Shanghai SLAC Laboratory Animal Co., Ltd.; humanized PD-1 transgenic mice were purchased from Nanjing Biomedical Research Institute of Nanjing University; and all mice were raised in SPF facilities. Mouse colon cancer cell line MC38, lung cancer cell line LLC-luci and melanoma cell line B16 were all purchased from American Type Culture Collection (ATCC). Since Treg cells can inhibit extensive antitumor immune response while promoting angiogenesis in the tumor microenvironment, to explore the in vivo influence of ursodeoxycholic acid on Treg cells, tumor-bearing models are established using mouse colon cancer cell line MC38, lung cancer cell line LLC-luci and melanoma cell line B16, with female SPF-grade C57BL/6 as the experiment subject. For better internal absorption of ursodeoxycholic acid, the above-mentioned ursodeoxycholic acid is replaced with sodium ursodeoxycholate (SANTA CRUZ BIOTECHNOLOGY, #2898-95-5). The control group and the experimental group both received injection of ddH2O and URSO (30 mg/kg) every day, with tumor size observed and recorded. […] Two weeks later, separate the tumor-infiltrating lymphocytes for analysis by flow cytometry. […]

[2] = system: lung cancer cell line LLC; assay: Combination with anti-PD-1 antibody, lung cancer model in humanized PD-1 transgenic mice; format: in vivo, mouse; conditions: LLC subcutaneous, SHR-1210 10 mg/kg every two days, URSO 30 mg/kg every other day, vs water and humanized IgG4 (FIG. 6)
Source text: (§2) Female C57BL/6 (6-8 weeks old) mice were purchased from Shanghai SLAC Laboratory Animal Co., Ltd.; humanized PD-1 transgenic mice were purchased from Nanjing Biomedical Research Institute of Nanjing University; and all mice were raised in SPF facilities. Mouse colon cancer cell line MC38, lung cancer cell line LLC-luci and melanoma cell line B16 were all purchased from American Type Culture Collection (ATCC).
(§3) To verify whether the combined use of ursodeoxycholic acid and anti-PD-1 antibody can improve antitumor effect, colon cancer cell line MC38, melanoma cell line B16 and lung cancer cell line LLC are inoculated subcutaneously into humanized PD-1 transgenic mice, which were randomly divided into four groups when tumor volume reaches 100 mm^3. Treatment groups were treated with SHR-1210, URSO or SHR-1210 in combination with URSO, while the control groups were injected with water and humanized IgG4 (an isotype control for SHRR-1210). SHR-1210 was used every two days at a dosage of 10 mg/kg, while URSO was used every other day at 30 mg/kg, with the volume of tumor recorded each time.

[3] = system: lung cancer cell line LLC-luci; assay: Lung cancer tumor-bearing mouse model (C57BL/6); format: in vivo
Source text: as §1

melanoma cell line B16 [4] = assay: Melanoma tumor-bearing mouse model (C57BL/6); format: in vivo
Source text: as §1

melanoma cell line B16 [5] = assay: Combination with anti-PD-1 antibody, melanoma model in humanized PD-1 transgenic mice; format: in vivo, mouse; conditions: B16 subcutaneous, SHR-1210 10 mg/kg every two days, URSO 30 mg/kg every other day, vs water and humanized IgG4 (FIG. 7)
Source text: as §2, §3

[6] = system: colon cancer cell line MC38; assay: Combination with anti-PD-1 antibody, colon cancer model in humanized PD-1 transgenic mice; format: in vivo, mouse; conditions: MC38 subcutaneous, SHR-1210 10 mg/kg every two days, URSO 30 mg/kg every other day, vs water and humanized IgG4 (FIG. 5)
Source text: as §2, §3

[7] = system: Treg cell differentiation (mouse naïve CD4+ T cells); assay: In vitro Treg cell differentiation of mouse naïve CD4+ T cells, flow cytometry; format: cell-based; conditions: 50 μM vs DMSO, anti-CD3/anti-CD28, flow cytometry on day 4 (FIG. 1)
Source text: Treg cell surface can express CD4 and CD25 molecules. In addition, it is characterized by its high expression of transcription factor Foxp3. Based on the characteristic above, flow cytometry is adopted to explore the in vitro influence of ursodeoxycholic acid on Treg cell differentiation. Detailed procedures are as follows: T cell sorting: Mouse T cells were sorted by immunomagnetic beads methods. The mice were killed by cervical dislocation, spleens and lymph nodes were taken under aseptic conditions, ground and put through a sieve, centrifuged at 400 g for 5 min, and cells were resuspended with sort buffer. The total cells were counted with 3% glacial acetic acid, and proceeded strictly following the instructions of the sorting kit. CD4 negative selection kit (EasySep™ Mouse CD4+ T Cell Isolation Kit, #19852A) and Biotin sorting kit (EasySep™ Mouse Biotin Positive Selection Kit, #18556) were used in combination for sorting naïve CD4+ T cells (CD4-positive naïve T cells). […] After sorting, when the CD4+CD62L+ purity detected by flow cytometry is greater than 95%, cells were used for further experiments. […] DMSO or ursodeoxycholic acid U5127 (SIGMA-ALDRICH, #128-13-2) was added with a concentration of 50 μM respectively, and the differentiation of Treg cells were detected by flow cytometry on day 4. […]

[8] = system: Treg cell differentiation (human naïve CD4+ T cells); assay: In vitro Treg cell differentiation of human naïve CD4+ T cells, flow cytometry; format: cell-based; conditions: human naïve CD4+ T cells from healthy volunteers, CD3/CD28 activation, flow cytometry on day 4 (FIG. 8)
Experimental: To investigate the influence of ursodeoxycholic acid on humanized Treg cell differentiation, whole blood of volunteers were collected (ethics approval: approved by Medical Ethics Committee of Zhejiang University School of Medicine, Shen Lun No. 2019-013; five healthy volunteers, 10 ml peripheral venous blood each, collected by Zhejiang Medial & Health Group Hangzhou Hospital). naïve CD4+ T cells were sorted. Detailed procedures are as follows: 1. Separation of peripheral blood mononuclear cells: • (1) Fresh anticoagulant whole blood (EDTA, sodium citrate or heparin) was taken. Whole blood was diluted with isotonic solution (PBS or normal saline) of equal volume. • (2) A certain volume of separating medium (VESTA, #7111011) was added into a centrifuge tube, diluted blood sample was spread evenly on the surface of separating medium, and maintained a clear interface between two liquid surfaces. […] Sorting of human naïve CD4+ T cells: • (1) With Human naïve CD4+ T Cell Kit (STEMCELL, #19155) and the standard kit method adopted, naïve CD4+ T cells were sorted from human peripheral blood mononuclear cells, and plating was conducted according to the method in Example 1. • (2) Human T-Activator CD3/CD28 was added for T Cell Expansion and Activation (Gibco, #11161D). • (3) On day 4, Treg cell differentiation was detected by flow cytometry.

| Molecule | tumor volume ([1]; C57BL/6 mice, 30 mg/kg injection every day, vs ddH2O control (FIG. 4A)) | tumor growth (tumor volume) [2] | tumor volume ([3]; C57BL/6 mice, 30 mg/kg injection every day, vs ddH2O control (FIG. 3A)) | tumor volume (melanoma cell line B16 [4]; C57BL/6 mice, 30 mg/kg injection every day, vs ddH2O control (FIG. 2A)) | tumor growth (tumor volume) (melanoma cell line B16 [5]) | tumor growth (tumor volume) [6] | proportion of Treg cells in tumor infiltrating lymphocytes ([1]; two weeks of treatment, flow cytometry (FIG. 4B)) | proportion of endogenous Treg cells [7] | proportion of Treg cells in tumor infiltrating lymphocytes ([3]; two weeks of treatment, flow cytometry (FIG. 3B)) | proportion of Treg cells in tumor infiltrating lymphocytes (melanoma cell line B16 [4]; two weeks of treatment, flow cytometry (FIG. 2B)) | differentiation of humanized endogenous Treg cells [8] |
| --- | --- | --- | --- | --- | --- | --- | --- | --- | --- | --- | --- |
| C[C@H](CCC(=O)[O-])[C@H]1CC[C@H]2[C@@H]3[C@@H](O)C[C@@H]4C[C@H](O)CC[C@]4(C)[C@H]3CC[C@]12C.[Na+] [URSO, sodium ursodeoxycholate] | obviously smaller in volume | significantly inhibited tumor growth | obviously smaller in volume | obviously smaller in volume | significantly inhibited tumor growth | significantly inhibited tumor growth |  |  |  |  |  |
| C[C@H](CCC(=O)O)[C@H]1CC[C@H]2[C@@H]3[C@@H](O)C[C@@H]4C[C@H](O)CC[C@]4(C)[C@H]3CC[C@]12C [ursodeoxycholic acid] |  |  |  |  |  |  | reduced | significantly reduced | reduced | reduced | reduced |
| B1 |  | significantly inhibited tumor growth |  |  | significantly inhibited tumor growth | significantly inhibited tumor growth |  |  |  |  |  |
